According to publication PMC7554977, “Antimicrobial Peptides with Enhanced Salt Resistance and Antiendotoxin Properties” (International Journal of Molecular Sciences, 2020):
Read-outs that look alike come from different tables or passages of the source.

Columns and labels:
[1] = test system: Gram-negative and Gram-positive bacteria; details: cited from earlier work
From the text: Problems such as salt sensitivity, cost of synthesis, bioavailability, and stability have limited the therapeutic applications of antimicrobial peptides. Among these problems, salt sensitivity is directly related to the microbicidal mechanism of antimicrobial peptides. […] Similar problems have also been found with other antimicrobial peptides. || Recently, solution structures of S1 (Ac-KKWRKWLAKK-NH2) and S1-Nal-Nal (Ac-KKWRKWLAKKNal-Nal-NH2) in complex with LPS micelles have been reported. Both S1 and S1-Nal-Nal bound to LPS through the hydrophilic surface of their helices to the negatively charged region of LPS. S1-Nal-Nal further inserted deeper into the hydrophobic core of LPS micelles and created better hydrophobic interactions of its C-terminal β-naphthylalanine end-tags with the lipid A motif of LPS. The LPS-induced inflammation might then be prohibited. Moreover, a strategy was developed to increase salt resistance and L ... || To investigate the amphipathic helix–AGP–hydrophobic helix on the antimicrobial and neutralization activities of LPS, two peptides KR12 and RW6 were used for the N-terminal and C-terminal helices. […] Sequences of the designed peptides are listed in Table 1 and their helical wheel analyses ar ...

[2] = test system: LPS (interaction between LPS and factor C); test: Limulus amebocyte lysate (LAL) assay, LPS binding and neutralization; type: biochemical, Limulus Polyphemus; details: peptide 64 μg/mL; CSE 5 EU; absorbance 405 nm, 37 °C; triplicate
Protocol: The ability of binding and neutralizing LPS in vitro was measured by the LAL assay which is well-known as the most sensitive and specific method.
The abilities of designed peptides to bind and neutralize LPS were assessed using Limulus amebocyte lysate (LAL) assay (Cape Cod Inc., East Falmouth, MA, USA). LAL is an extract of amebocytes from the Atlantic horseshoe crab Limulus Polyphemus. LAL reacts with lipopolysaccharide (LPS) from bacteria. Different concentrations (5, 4, 2, 1, 0.5 EU) of control standard LPS (CSE) were mixed with LAL reagent water at the same volume of 25 μL to make a standard curve. The samples of 25 μL of different peptide concentrations (128, 64, 32, 16, 8 μg/mL) were mixed with 25 μL CSE (5 EU) in a 96-well plate. A portion of 50 μL of pyrochrome reagent was added to the wells immediately. The absorbance at 405 nm was measured by microplate reader at 37 °C every minute until 25 min.

[3] = test system: Acinetobacter sp. (BCRC number 14B0100); type: cell-based; details: MH and LYM media
From the text: (§1) Escherichia coli strain (ATCC 25922), Staphylococcus aureus sp. strain (ATCC 25923), Pseudomonas aeruginosa Migula strain (ATCC 27853) and Acinetobacter sp. (BCRC number 14B0100) were used to test the antibacterial activity of the peptides. All bacteria were purchased from Food Industry Research and Development Institute (Hsinchu, Taiwan), and Acinetobacter sp. is multiresistant to Ampicillin, Cefazolin, Cefoxitin, Ceftazidime, Ceftriaxone, Ciprofloxacin, Penicillin, Tetracycline and Imipenem. Bacteria were cultured in sterilized MH (Müller−Hinton) broth at 200 rpm and 37 °C for 8 h. After 8 h of culture, the concentrations of the inoculums were determined by measuring absorbance of optical density at 600 nm (OD 600 = 1, equal to approximately 10^8 CFU/mL) with Ultrospec 2100 pro UV−Visible spectrophotometer (Biochrom Ltd., Cambridge, UK)).
(§2) The antibacterial activities were determined by the standard broth microdilution method of the National Committee for Clinical Laboratory Standards with the MH and LYM broth. The LYM broth contains 5.4 mM KCl, 5.6 mM Na2HPO4, 0.5 mM MgSO4, and 1.0 mM sodium citrate. In addition, 0.4 mg of ZnCl2, 2.0 mg of FeCl3·6H2O, 0.1 mg of CuSO4·5H2O, 0.1 mg of MnSO4·H2O, 0.1 mg of Na2B4O7·10H2O, 700 mg of amino acid mixtures without tryptophan (Clontech), and 20 mg of L-tryptophan were added per liter of medium. A vitamin mixture (100X, Sigma) and glucose at final concentration of 2% were also added. We made 1 µL peptide solutions (ranging from 3200 µg/mL to 100 µg/mL in serial dilution) and mixed with 99 µL inoculum (5 × 10^5 CFU/mL) in a polypropylene 96-well plate. We measured the turbidity at OD 600 nm by ELISA plate reader (Thermo Max, Molecular Devices, Sunnyvale, CA, USA). The absorbance of culture medium and inoculum suspension without peptides were used as the negative and positive control, respectively. The MIC value is the lowest concentration of peptide at which there is no obvious growth (equal or more than 90%). […] All peptides were tested in triplicate.

[4] = test system: Gram-positive and Gram-negative bacteria; type: cell-based
From the text: as §1, §2

Row | Substance | Antimicrobial activities [1] | LPS neutralization, inhibition in LAL assay [2] | MIC ([4]; 8 h) | other results
1 | AKRHHGYKRKFH-NH2 [Peptide P-113] |  |  |  | Efficacy in high salt conditions ([1]; high salt conditions): greatly reduced
2 | Ac-KRIVQRIKDFLR-NH2 [KR12, reference compound] | possess antimicrobial activities | less than 25% |  | Effectiveness against Acinetobacter sp. compared with the other three bacteria strains [3]: more effective
3 | Ac-KRIVQRIKDFLRAGPRRLVRI-NH2 [KR12AGPVR6] |  |  | 4~32 μg/mL | 
4 | Ac-KRIVQRIKDFLRAGPRRWWRW-NH2 [KR12AGPWR6] |  |  | 2~4 μg/mL | 
5 | Ac-RRWWRW-NH2 [RW6] |  | less than 25% | 8~32 μg/mL | MIC (antibacterial activity) ([4]; LYM broth with >100 mM NaCl added, triplicate): lost its antibacterial activity; MIC ([4]; MH broth, inoculum 5 × 10^5 CFU/mL, OD 600 nm, triplicate): lost its antibacterial activity
6 | WRWWRR [WR6] | moderate antimicrobial activities |  |  | 
